Source: patent publication EP0444898A1, “Cyclic hexapeptide oxytocin antagonists” (MERCK & CO. INC., priority 1990, dated 1991)

Molecular target: T1, uterine OT receptors (Rattus norvegicus, UniProt P70536)
T1 construct: a crude membrane preparation of uteri; from tissue; host or cells: uterus of DES-treated rats, crude membranes
T1 sequence (P70536 1-388): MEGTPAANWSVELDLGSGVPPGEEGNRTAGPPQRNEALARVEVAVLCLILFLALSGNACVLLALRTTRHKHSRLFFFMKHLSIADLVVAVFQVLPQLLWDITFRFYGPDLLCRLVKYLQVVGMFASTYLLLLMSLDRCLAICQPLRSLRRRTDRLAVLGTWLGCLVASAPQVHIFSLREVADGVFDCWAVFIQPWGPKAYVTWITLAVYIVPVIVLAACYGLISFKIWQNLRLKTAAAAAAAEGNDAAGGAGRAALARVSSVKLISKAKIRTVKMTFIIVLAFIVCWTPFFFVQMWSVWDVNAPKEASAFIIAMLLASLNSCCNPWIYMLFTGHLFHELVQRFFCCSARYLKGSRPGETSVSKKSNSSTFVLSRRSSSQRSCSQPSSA
Assay: [3H]OT radioligand binding to uterine OT receptors, crude membrane preparation
Set-up: species or system rats
Conditions: saturation binding assays; uterus

Kd: 0.7 nM
Substance: [tyrosyl, 3,5-^3H]OT [[^3H]OT]
